{"source": "patent EP0574185B1", "about": "“PGE1 analogs” (NEWPHARMA INTERNATIONAL CORPORATION, priority 1992, dated 1993)", "key": {"Swiss female mice": {"test_system": "Swiss female mice", "test": "Barbiturate sleeping time in mice", "assay_type": "in vivo", "conditions": "100 µg/kg,ip, 15 min before pentobarbital sodium 30 mg/kg i.p., n= 12", "method": "The effect of B-407 on the time of induction and time of duration of the barbiturate sleeping time was evaluated by determining the time of loss and recovery of the righting reflex. This was carried out in Swiss female mice weighing 20 g to 25 g.\nTwo groups of 12 mice each were used. One group was treated with B-407 (100 µg/kg, i.p.). Fifteen minutes later, pentobarbital sodium (30 mg/kg, i.p.) was administered. The time of onset (the loss of the righting reflex) and of duration (the elapsed time from the loss of the righting reflex up to its recovery from the barbiturate-induced sleeping) were determined. Full recovery of the righting reflex was assumed when the animal, placed on its back, could recover its normal position at least 3 times during one minute. The control mice group followed the same protocol, but received saline solution instead B-407. The results were expressed as the average ± standard error of each group and the statistical significance of the differences were evaluated by means of the Student's-t-test."}, "[1]": {"test_system": "rat uterus under diestrous condition", "test": "C2: effect on PGF2α induced in vitro contraction of rat uterus under diestrous condition", "conditions": "B-407 1x10^-8 M; PGF2α 10^-9M; nutrient solution 1,04; p < 0.02", "method": "Then, a known concentration of the test prostaglandin was added and no washing was carried out during the following 15 minutes. PGF2α (10^-8 M) was added, washing once after 2 minutes and then twice over a total time period of 15 minutes. The result was expressed as the relationship between the effect of PGF2α after the treatment with B-407 and the sum of the effect of PGF2α (mean of the three initial additions) and the effect of B-407 \"per se\". The recordings of the contractions and their quantitation were performed as described in (A).\nThe experimental conditions were identical to those described in B2 and the working protocol was similar to that of C1 but the PGF2α concentration was of 10^-9M. The recordings of the contractions and their quantitation were performed as described in (A).\n* p < 0.05: Tested vs. nutrient solution by ANOVA and Scheffe. ** p < 0.02: Tested vs. nutrient solution by Student's-t-test. Ratio = Effect of PGF2α after B-407/(Effect of PG F2α before B-407 + Effect of B-407). […]\nThe frequency and magnitude of the responses were globally evaluated by calculating the total area recorded at a fixed time period as will be further explained. […]\nThe calibration was made by weighing a piece of paper which corresponded to a tension of 1 g at the working sensitivity along 2 minutes. […] The results were expressed as the mean ± the standard error of the areas obtained. […]"}, "Beagle dogs": {"test_system": "Beagle dogs", "test": "Volume and acidity of histamine stimulated gastric secretion in dogs (gastric fistula)", "assay_type": "in vivo", "method": "Healthy adult Beagle dogs weighing 10 kg to 13 kg were used.\nThe basal response of each dog to histamine, as represented by volume of gastric secretion and acid concentration, was carried out six times. For this purpose the dogs were placed in a Pavlov support and plastic bottles were connected to a Thomas type gastric fistula after cleaning it when necessary.\nSaline i.v. infusion was started by means of a Butterfly G 21 (Abbott) needle connected to a 500 ml bottle of sterile pyrogen free isotonic saline solution through an inert plastic cannula. The solution dripping was adjusted to 1 ml/min.\nThe volume of gastric secretion obtained from fifteen minutes collection periods, expressed as ml/15 min, was determined. Aliquots of 5 ml were kept in the freezer to perform acid titration on the next day. The first three collection periods were considered as the actual basal gastric secretion for each dog in the absence of any drug. Then the bottle of saline was changed for a solution of histamine. 2HCl at a concentration of […] in saline. The dripping was adjusted to 20 drops per minute (984 µg histamine/hour) After the plateau of augmented gastric secretion was reached, B-407 was administered.\nAcid concentration, expressed as mEq H+/l was determined by titration with sodium hydroxide."}, "Swiss mice": {"test_system": "Swiss mice", "test": "Exploratory activity in mice (open field)", "assay_type": "in vivo", "conditions": "i.p., control 88 ± 8, n=10", "method": "The effect of B-407 on the exploratory activity was evaluated in Swiss mice of 30 g to 40 g in an open-field of 40 cm x 40 cm x 25 cm divided in 9 quadrants. One mouse at a time was placed into the open field to assess its exploratory activity by counting the number of quadrants crossed in 4 consecutive periods of 3 minutes each.\nThe working protocol consisted of two experiments with 3 groups of 10 animals each. In both experiments, each group of mice were pretreated with B-407, 0 µg/kg, 30 µg/kg and 100 µg/kg five min prior to the test. In one experiment, the animals were treated, p.o., with a combination of the antispasmodics homatropine methylbromide (5 mg/kg) and papaverine (5 mg/kg) administered 10 min prior to B-407. In the other experiment, this treatment was replaced by saline solution. The two experiments were carried out at the same time.\nThe results were expressed as the average ± standard error of each group and the statistical significance of the differences were evaluated by means of the Student's-t-test."}, "[2]": {"conditions": "Canis lupus familiaris, iv, read-out: VOLUME % Inhib."}}, "note": "Read-outs that look alike come from different tables or passages of the source.", "data": [{"compound": "CCCCC(C)(O)C/C=C/[C@H]1[C@H](O)CC(=O)[C@@H]1CCCC/C=C/C(=O)OC", "note": "(mixture of isomers) [B-407, trans-Δ^2-15-deoxy-16-hydroxy-16-methyl PGE1 methyl ester]", "values": [{"measurement": "Induction time", "setting": "Swiss female mice; control 4,52 ± 0,22, p < 0,02", "value": "3,75 ± 0,19 min"}, {"measurement": "Sleeping time", "setting": "Swiss female mice; control 27,8 ± 3,10, n.s.", "value": "29,7 ± 2,91 min"}, {"measurement": "Ratio = Effect of PGF2α after B-407/(Effect of PG F2α before B-407 + Effect of B-407)", "setting": "[1]", "value": "2,35"}, {"measurement": "inhibition at 0.003 mg/kg", "setting": "Beagle dogs; Canis lupus familiaris, iv, read-out: ACIDITY % Inhib", "value": 59.7, "unit": "%"}, {"measurement": "inhibition at 0.001 mg/kg", "setting": "Beagle dogs; [2]", "value": 15.2, "unit": "%"}, {"measurement": "inhibition at 0.003 mg/kg", "setting": "Beagle dogs; [2]", "value": 93.7, "unit": "%"}, {"measurement": "ACIDITY % Inhib", "setting": "Beagle dogs; i.g. 10 µg/kg", "value": "42,5%"}, {"measurement": "VOLUME % Inhib.", "setting": "Beagle dogs; i.g. 10 µg/kg", "value": "24,3%"}, {"measurement": "VOLUME Max.eff. B-407", "setting": "Beagle dogs; i.g. 10 µg/kg, histamine plateau 42,0±3,6", "value": "31,8±6,2 ml/15min"}, {"measurement": "ACIDITY Max.Eff. B-407", "setting": "Beagle dogs; i.g. 10 µg/kg, histamine plateau 122,4±9,7", "value": "70,4±11,8 mEq.H^+/l"}, {"measurement": "ACIDITY % Inhib", "setting": "Beagle dogs; i.g. 30 µg/kg", "value": "31,8%"}, {"measurement": "VOLUME % Inhib.", "setting": "Beagle dogs; i.g. 30 µg/kg", "value": "36,3%"}, {"measurement": "VOLUME Max.eff. B-407", "setting": "Beagle dogs; i.g. 30 µg/kg, histamine plateau 38,3±2,6", "value": "24,4±3,1 ml/15min"}, {"measurement": "ACIDITY Max.Eff. B-407", "setting": "Beagle dogs; i.g. 30 µg/kg, histamine plateau 143,4±3,2", "value": "97,8±13,2 mEq.H^+/l"}, {"measurement": "VOLUME Max.eff. B-407", "setting": "Beagle dogs; i.v. 1 µg/kg, histamine plateau 39,5±3,4", "value": "33,5±3,6 ml/15min"}, {"measurement": "VOLUME Max.eff. B-407", "setting": "Beagle dogs; i.v. 3 µg/kg, histamine plateau 43,2±4,6", "value": "2,7±1,3 ml/15min"}, {"measurement": "ACIDITY Max.Eff. B-407", "setting": "Beagle dogs; i.v. 3 µg/kg, histamine plateau 145,3±3,0", "value": "58,5±16,0 mEq.H^+/l"}, {"measurement": "VOLUME % Inhib.", "setting": "Beagle dogs; i.vag 10 µg/kg (n=3)", "value": "100,0%"}, {"measurement": "VOLUME Max.eff. B-407", "setting": "Beagle dogs; i.vag 10 µg/kg (n=3), histamine plateau 43,0±2,0", "value": "0,0 ml/15min"}, {"measurement": "ACIDITY % Inhib", "setting": "Beagle dogs; i.vag 30 µg/kg (n=2)", "value": "67,3%"}, {"measurement": "VOLUME % Inhib.", "setting": "Beagle dogs; i.vag 30 µg/kg (n=2)", "value": "93,8%"}, {"measurement": "VOLUME Max.eff. B-407", "setting": "Beagle dogs; i.vag 30 µg/kg (n=2), histamine plateau 38,5±8,5", "value": "2,4±1,7 ml/15min"}, {"measurement": "ACIDITY Max.Eff. B-407", "setting": "Beagle dogs; i.vag 30 µg/kg (n=2), histamine plateau 118,9±4,3", "value": "38,9±19,9 mEq.H^+/l"}, {"measurement": "ACIDITY % Inhib", "setting": "Beagle dogs; i.vag. 1 µg/kg", "value": "24,4%"}, {"measurement": "VOLUME % Inhib.", "setting": "Beagle dogs; i.vag. 1 µg/kg", "value": "30,5%"}, {"measurement": "VOLUME Max.eff. B-407", "setting": "Beagle dogs; i.vag. 1 µg/kg, histamine plateau 50,8±2,4", "value": "35,3±5,3 ml/15min"}, {"measurement": "ACIDITY Max.Eff. B-407", "setting": "Beagle dogs; i.vag. 1 µg/kg, histamine plateau 134,2±6,4", "value": "101,4±13,3 mEq.H^+/l"}, {"measurement": "ACIDITY % Inhib", "setting": "Beagle dogs; i.vag. 3 µg/kg", "value": "71,5%"}, {"measurement": "VOLUME % Inhib.", "setting": "Beagle dogs; i.vag. 3 µg/kg", "value": "98,4%"}, {"measurement": "VOLUME Max.eff. B-407", "setting": "Beagle dogs; i.vag. 3 µg/kg, histamine plateau 49,1±2,5", "value": "0,8±0,4 ml/15min"}, {"measurement": "ACIDITY Max.Eff. B-407", "setting": "Beagle dogs; i.vag. 3 µg/kg, histamine plateau 132,6±8,7", "value": "37,8±12,7 mEq.H^+/l"}, {"measurement": "N° Quadrants/12 min", "setting": "Swiss mice; 30 µg/kg", "value": "87 ± 8"}, {"measurement": "N° Quadrants/12 min", "setting": "Swiss mice; 100 µg/kg, p < 0,05", "value": "48 ± 8"}]}]}
